Data published in ChEMBL document CHEMBL3259605, “Improving the Pharmacokinetics of GPR40/FFA1 Full Agonists” (ACS Med Chem Lett, 2014).
Active and inactive are the calls of the source. The rule behind the calls is not given here.

Assays:
[1] = Half life in rat at 0.5 mg/kg, iv; assay type: ADME, organism-based; parameters: dose 0.5 mg/kg, route intravenous; conditions: in vivo
[2] = target: T1, Free fatty acid receptor 1 (Homo sapiens, UniProt O14842); assay: Agonist activity at GPR40 (unknown origin) expressed in CHO cells assessed as luminescence for 20 seconds interval by aequorin assay in presence of 0.01% human serum albumin relative to AM-1638; assay type: cell-based
T1 sequence (O14842 whole entry): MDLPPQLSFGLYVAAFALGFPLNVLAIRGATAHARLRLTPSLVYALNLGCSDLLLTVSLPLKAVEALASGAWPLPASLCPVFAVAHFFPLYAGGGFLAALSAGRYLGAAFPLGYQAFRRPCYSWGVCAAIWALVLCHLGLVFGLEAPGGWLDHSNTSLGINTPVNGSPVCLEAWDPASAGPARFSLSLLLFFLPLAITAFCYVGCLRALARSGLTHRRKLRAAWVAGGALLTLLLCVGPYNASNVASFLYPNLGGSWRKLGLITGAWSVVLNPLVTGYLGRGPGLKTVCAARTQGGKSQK

[3] = target: T1, Free fatty acid receptor 1; assay: Agonist activity at GPR40 (unknown origin) expressed in mouse A9 cells assessed as inositol phosphate accumulation using [myo-3H]inositol after 1 hr by scintillation counting in presence of 0.3% human serum albumin; assay type: functional, cell-based
[4] = Clearance in rat at 0.5 mg/kg, iv; assay type: ADME, organism-based; parameters: dose 0.5 mg/kg, route intravenous; conditions: in vivo
[5] = target: T1, Free fatty acid receptor 1; assay: Agonist activity at GPR40 (unknown origin) expressed in mouse A9 cells assessed as inositol phosphate accumulation using [myo-3H]inositol after 1 hr by scintillation counting in presence of 0.3% human serum albumin relative to AM-1638; assay type: functional, cell-based
[6] = Oral bioavailability in rat at 2 mg/kg; assay type: ADME, organism-based; conditions: in vivo
[7] = target: T1, Free fatty acid receptor 1; assay: Agonist activity at GPR40 (unknown origin) expressed in CHO cells assessed as luminescence for 20 seconds interval by aequorin assay in presence of 0.01% human serum albumin; assay type: cell-based
Mus musculus [8] = assay: Antidiabetic activity in high fat fed C57/Bl6 mouse streptozotocin-induced type 2 diabetic model assessed as reduction of blood glucose level at 30 mg/kg, po up to 120 mins by oral glucose tolerance test; assay type: functional, organism-based; parameters: dose 30 mg/kg
Mus musculus [9] = assay: Antidiabetic activity in po dosed high fat fed C57/Bl6 mouse streptozotocin-induced type 2 diabetic model assessed as reduction of blood glucose level up to 120 mins by oral glucose tolerance test; assay type: functional, organism-based
Mus musculus [10] = assay: Antidiabetic activity in diet-induced obesity BDF1 mouse model assessed as reduction of blood glucose level at 30 mg/kg, po up to 120 mins by oral glucose tolerance test; assay type: functional, organism-based; parameters: dose 30 mg/kg
[11] = Intrinsic clearance in human liver microsomes at 1 uM after 30 mins; assay type: ADME; conditions: read-out: CLH
Mus musculus [12] = assay: Induction of GLP-1 release in po dosed high fat fed C57/Bl6 mouse streptozotocin-induced type 2 diabetic model; assay type: functional, organism-based
[13] = Intrinsic clearance in rat liver microsomes at 1 uM after 30 mins; assay type: ADME; conditions: read-out: CLH
Mus musculus [14] = assay: Antidiabetic activity in diet-induced obesity BDF1 mouse model assessed as reduction of blood glucose level at 0.3 mg/kg, po up to 120 mins by oral glucose tolerance test; assay type: functional, organism-based; parameters: dose 0.3 mg/kg
Mus musculus [15] = assay: Antidiabetic activity in diet-induced obesity BDF1 mouse model assessed as reduction of blood glucose level at 3 mg/kg, po up to 120 mins by oral glucose tolerance test; assay type: functional, organism-based; parameters: dose 3 mg/kg
Mus musculus [16] = assay: Antidiabetic activity in diet-induced obesity BDF1 mouse model assessed as reduction of blood glucose level at 3 to 10 mg/kg, po up to 120 mins by oral glucose tolerance test; assay type: functional, organism-based
Mus musculus [17] = assay: Antidiabetic activity in high fat fed C57/Bl6 mouse streptozotocin-induced type 2 diabetic model assessed as reduction of blood glucose level at 60 mg/kg, po up to 120 mins by oral glucose tolerance test; assay type: functional, organism-based; parameters: dose 60 mg/kg

Compound	half-life [1] [h]	Emax [2] [%]	EC50 [3] [nM]	clearance [4] [mL/min/kg]	Emax [5] [%]	bioavailability [6] [%]	EC50 [7] [nM]	also measured
COc1cc(-c2ccc(COc3cc4c(cn3)CC[C@]43C[C@H]3C(=O)O)cc2[C@@H]2CCCC2(C)C)c(F)cn1	3.6	98	22	4.33	97	58	249	–
COc1cc(-c2ccc(COc3ccc4c(c3)[C@@](C)(CC(=O)O)CC4)cc2[C@H](OC)C(C)(C)C)c(F)cn1	4	106	6.7	4.17	101	21	235	–
COc1ccc(F)c(-c2ccc(COc3cccc([C@@H](CC(=O)O)C4CC4)c3)cc2[C@@H](OC)C(C)(C)C)c1	–	98	–	–	–	–	1410	–
COc1cc(-c2ccc(COc3cccc([C@@H](CC(=O)O)C4CC4)c3F)cc2[C@@H]2CCCC2(C)C)c(F)cn1	4.6	102	–	2.83	–	98	93	Activity (Mus musculus [8]): Active; Activity (Mus musculus [9]): Dose-dependent effect; Activity (Mus musculus [10]): Active; microsomal CLint at 1 µM [11]: 15 µL/min/mg; Activity (Mus musculus [12]): Dose-dependent effect; microsomal CLint at 1 µM [13]: 52 µL/min/mg
COc1cc(-c2ccc(COc3cc([C@@H](CC(=O)O)C4CC4)ccn3)cc2[C@@H]2CCCC2(C)C)c(F)cn1	9.7	110	1.7	1.43	100	37	108	–
COc1cc(-c2ccc(COc3cc4c(cn3)CC[C@]43C[C@H]3C(=O)O)cc2[C@H](OC)C(C)(C)C)c(F)cn1	1.2	85	370	28.3	122	–	250	–
CC[C@H](CC(=O)O)c1ccnc(OCc2ccc(-c3cc(OC)ncc3F)c([C@@H]3CCCC3(C)C)c2)c1	8.2	99	6	2.5	102	83	150	–
COc1ccc(F)c(-c2ccc(COc3cccc([C@@H](CC(=O)O)C4CC4)c3)cc2[C@H](OC)C(C)(C)C)c1	3.5	105	–	4.67	–	–	147	–
COc1ccc(F)c(-c2ccc(COc3cccc([C@@H](CC(=O)O)C4CC4)c3)cc2[C@@H]2CCCC2(C)C)c1	2	101	–	11.7	–	34	76	microsomal CLint at 1 µM [11]: 52 µL/min/mg; microsomal CLint at 1 µM [13]: 219 µL/min/mg
COc1ccc(F)c(-c2ccc(COc3cccc([C@@H](CC(=O)O)C4CC4)c3)cc2CC(C)(C)C)c1	1.2	102	–	20	–	–	88	–
CCC[C@H](CC(=O)O)c1cccc(OCc2ccc(-c3cccc(OC)n3)c(C(C)(C)C)c2)c1	–	61	–	–	–	–	3700	–
CCO[C@@H](c1cc(COc2cccc([C@@H](CC(=O)O)C3CC3)c2)ccc1-c1cc(OC)ccc1F)C(C)(C)C	3.9	101	–	5.33	–	–	114	–
CCC[C@H](CC(=O)O)c1cccc(OCc2ccc(-c3cccc(OC)c3)c(C(C)(C)C)c2)c1	–	94	–	–	–	–	370	–
COc1cc(-c2ccc(COc3cccc([C@@H](CC(=O)O)C4CC4)c3)cc2[C@@H]2CCCC2(C)C)c(F)cn1	3.5	95	–	1.67	–	34	68	microsomal CLint at 1 µM [11]: 21 µL/min/mg; microsomal CLint at 1 µM [13]: 67 µL/min/mg
COc1cc(-c2ccc(COc3ccc4c(c3)[C@@](C)(CC(=O)O)CC4)cc2[C@@H]2CCCC2(C)C)c(F)cn1	3.7	100	3.4	7.5	100	10	128	–
COc1cc(-c2ccc(COc3cccc([C@@H](CC(=O)O)C4CC4)c3)cc2C2=CCCC2(C)C)c(F)cn1	–	100	–	–	–	–	120	–
COc1cc(-c2ccc(COc3cc([C@@H](CC(=O)O)C4CC4)ccn3)cc2[C@H](OC)C(C)(C)C)c(F)cn1	8.1	94	0.6	1.02	100	54	162	Activity (Mus musculus [14]): Active; Activity (Mus musculus [15]): Active; Activity (Mus musculus [16]): Active
COc1ccc(F)c(-c2ccc(COc3cccc([C@@H](CC(=O)O)C4CC4)c3)cc2[C@@H]2OCCCC2(C)C)c1	–	96	–	–	–	–	227	–
COc1ccc(F)c(-c2ccc(COc3cccc([C@@H](CC(=O)O)C4CC4)c3)cc2[C@H](F)C(C)(C)C)c1	–	100	–	–	–	–	105	–
COc1cc(-c2ccc(COc3cc([C@H](C)CC(=O)O)ccn3)cc2[C@@H]2CCCC2(C)C)c(F)cn1	–	136	19	–	100	–	281	–
CCC[C@H](CC(=O)O)c1cccc(OCc2ccc(-c3cncc(OC)c3)c(C(C)(C)C)c2)c1	–	72	–	–	–	–	30000	–
COc1ccc(F)c(-c2ccc(COc3cccc([C@@H](CC(=O)O)C4CC4)c3)cc2C2=CCCC2(C)C)c1	–	–	–	–	–	–	–	Activity (Mus musculus [17]): Active
